Test results as given in US20230125212A1, “MEANS AND METHODS FOR ENHANCING CA[…]” (priority 2020, published 2023).

Tested on: pilocarpine-induced epilepsy
Test: Rat model of pilocarpine-induced epilepsy, seizure scoring by Racine scale
Format: in vivo
Details: CBD 25 mg/kg IP; cumulative Racine score over 120 min after pilocarpine 350 mg/kg
Procedure: Objective: The aim of the current study is to assess the effect of a new CBD formulation as seizures protection in the rat model of pilocarpine-induced epilepsy.
Study variables and endpoints: The formulation is administered IP (Intraperitoneally). The animals are assessed for: • a. Mortality & morbidity—Twice daily • b. Body weight monitoring—During acclimation and before Test Item (TI) dosing (Day 1) • c. Clinical signs—Before TI dosing, continuous follow-up during the first two hours following Pilocarpine administration. Monitoring of number and duration of seizures during 120 minutes following pilocarpine administration (Seizures rating according to Racine scale). • d. Study termination—At the end of the seizures' observation (120 minutes after Pilocarpine administration) animals are sedated with Ketamine/Xylazine mixture and are subjected to pericardial perfusion with PBS and PFA 4%, brains will be removed and stored in PFA 4% until histopathological analysis
Administration of the Test Items Each Test Item and vehicle formulation are administered to tested animals, according to Table. […]
Seizure scoring: Following model induction by Pilocarpine injection, the animals are video recorded for 2 hours. The videos are analyzed and seizures rating are recorded according to the following Racine scale below. • a. […]

C=C(C)[C@@H]1CCC(C)=C[C@H]1c1c(O)cc(CCCCC)cc1O [CBD, Cannabidiol]
AV-Seizure Score: 29.2
